Experimental data reported in patent US8785374B2, “Inhibitors of mammalian tight junction opening” (Alba Therapeutics Corporation, priority 2007, dated 2014).
Non-standard residues stand in square brackets, D forms with d. No end group written: not given here. pGlu = O=C1CC[C@@H](C(=O)O)N1; Gip = not defined here

What was measured:
[1] = system: CaCo2 monolayers (tight junctions); assay: Inhibition of agonist-induced decrease in trans epithelial electric resistance (TEER) of CaCo2 monolayers; conditions: for Prevented TEER Reduction: inhibition of the reduction in TEER induced by SEQ ID NO:70 (FCIGRL), CaCo2 monolayers
Source text: (§1) Measurement of the Inhibition of the Decrease in Trans Epithelial Electric Resistance (TEER) and Epithelial Flux of a Fluorescent Marker Lucifer Yellow
(§2) Antagonists of tight junctions can be identified by their ability to prevent or decrease the enhancement of the flux of compounds (e.g. Lucifer Yellow) through the monolayer induced by agonists of tight junctions (e.g., SEQ ID NO: 70). Antagonists of tight junctions can also be identified by their ability to prevent the decrease in TEER induced by agonists of tight junctions (e.g., SEQ ID NO: 70).
(§3) Tight junction antagonists can be identified using the following method:
(§4) Prepare Modified Hank's Balanced Salt Solution (MHBSS) by obtaining IL bottle of HBSS removing 10 ml of HBSS and replacing it with 10 ml HEPES buffer pH 7.0. Adjust pH to 7.4±0.1 using concentrated NaOH (10N).
(§5) Remove Caco-2 cells from incubator, grown on 12-well, […], polycarbonate Transwell® filters (Corning) and record passage number, date cells seeded and age in days.
(§6) Aspirate cell culture medium from both the apical (AP) and basolateral (BL) compartments, replacing with 0.5 ml and 1.5 ml of MHBSS, respectively. Incubate cells at 37° C. for 30 minutes.
Using the MilliCell®-ERS instrument (Millipore), measure and record the transepithelial electrical resistance (TEER) across each filter and record.
(§7) Prepare a stock solution of the Antagonist Pretreatment Solution by dissolving the appropriate amount of antagonist in MHBSS. Vortex or sonicate the solution until it is clear then adjust pH to 7.4±0.1 using 1N NaOH. Preincubate each filter for 30 min with these solutions at 37° C. and 50 RPM.
(§8) Prepare stock solutions of Antagonist Treatment Solution by dissolving appropriate amounts of antagonist and agonist (for example, a peptide agonist such as a peptide having the sequence FCIGRL (SEQ ID NO: 70)) in 7.5 mM Lucifer Yellow solution in MHBSS. Vortex or sonicate the solution until it is clear then adjust pH to 7.4±0.1 using 1N NaOH.
(§9) Aspirate Antagonist Pretreatment Solution from the apical compartment of each filter (n=3 per condition) and replace with 0.5 ml of control and test solutions.
(§10) Place all plates into incubator set at 37° C. (±0.2), 50 RPM (±5) for a total of 180 minutes.
At t=30, 60, 120 and 180 minutes, measure and record the transepithelial electrical resistance (TEER) across each filter using the MilliCell-ERS instrument.
(§11) Cells: Caco-2 cells passage 40-60 grown on Transwell® plates for 21-28 days
(§12) SEQ ID NO: 70 is a 6-mer peptide tight junction agonist having the sequence FCIGRL. See US patent publication US 2005/0059593 A1. In the following tables + indicates attenuation of the effects of the tight junction agonist were observed and − indicates no attenuation of the effects of the tight junction agonist were observed.

[2] = system: CaCo2 monolayers (tight junctions); assay: Inhibition of agonist-induced Lucifer Yellow flux through CaCo2 monolayers; conditions: for Reduced LY Permeability: inhibition of the increase in Lucifer Yellow permeability induced by SEQ ID NO:70 (FCIGRL), CaCo2 monolayers
Source text: as §1, §2, §3, §4, §5, §6, §7, §8, §9, §10
At t=60, 120 and 180 minutes remove 100 μl from each basolateral compartment and place it in a 96-well plate for Lucifer Yellow analysis, replace with 100 μl of HBSS.
Make a Lucifer Yellow standard curve with the following dilutions (7500 μM, 3750 μM, 750 μM, 375 μM, 75 μM, 37.5 μM, 7.5 μM, 3.75 μM, 0.75 μM) and pipette 100 μL of each into a 96-well plate except for the first three standards mentioned above which require a 1:10 dilution prior to transferring to the 96-well plate.
At t=0 make 1:10 dilutions of each starting Antagonist Treatment Solution mentioned above and pipette 100 μL of each into a 96-well plate.
At t=180 make 1:10 dilutions of Antagonist Treatment Solution from the apical compartment of each filter and pipette 100 μL of each into the 96-well plate.
Analyze each 96-well plate in a Tecan Spectra Fluor Plus using Magellan at 485 and 535 nm.
as §11, §12

[3] = agonist alone, compared to vehicle alone

Substance | Prevented TEER Reduction [1] | Reduced LY Permeability [2] | Decrease of TEER in CaCo2 monolayers [1, 3] | Enhancement of Lucifer Yellow permeability through CaCo2 monolayers [2, 3]
(d)Gln-(d)Pro-Gly ([dQ]-[dP]-Gly) [SEQ ID NO: 12] | − | − |  | 
(d)Gln-Pro-Gly ([dQ]-Pro-Gly) [SEQ ID NO: 10] | + | + |  | 
Ala-Pro-Gly (APG; Tight junction antagonist) [SEQ ID NO: 7] | + | + |  | 
Ala-Pro-Gly (APG; Tight junction antagonist) [SEQ ID NO: 17] | + | + |  | 
Arg-Pro-Gly (RPG; Tight junction antagonist) [SEQ ID NO: 20] | + | + |  | 
Asn-Pro-Gly (NPG; Tight junction antagonist) [SEQ ID NO: 27] | + | + |  | 
Asp-Pro-Gly (DPG; Tight junction antagonist) [SEQ ID NO: 19] | − | − |  | 
FCIGRL [FCIGRL, reference compound] |  |  | 16 fold | 51 fold
GGVLVQPG [SEQ ID NO: 1, reference compound] | + | + |  | 
GVLVQPG [SEQ ID NO: 2] | − | − |  | 
Gip-Pro-Ile ([Gip]-Pro-Ile; reading uncertain; also: printed as Gip-Pro-Ile) [SEQ ID NO: 67] | + | − |  | 
Gln-(d)Pro-Gly (Gln-[dP]-Gly) [SEQ ID NO: 11] | + | + |  | 
Gln-Ala-Gly (QAG; Tight junction antagonist) [SEQ ID NO: 8] | + | + |  | 
Gln-Pro-Ala (QPA; Tight junction antagonist) [SEQ ID NO: 9] | + | + |  | 
Gln-Pro-Gly (QPG; Tight junction antagonist) [SEQ ID NO: 6] | + | + |  | 
Glp-Arg-Gly ([pGlu]-Arg-Gly) [SEQ ID NO: 47] | − | − |  | 
Glp-Asn-Gly ([pGlu]-Asn-Gly) [SEQ ID NO: 46] | − | − |  | 
Glp-Asp-Gly ([pGlu]-Asp-Gly) [SEQ ID NO: 50] | − | − |  | 
Glp-Gln-Gly ([pGlu]-Gln-Gly) [SEQ ID NO: 37] | − | − |  | 
Glp-Glu-Gly ([pGlu]-Glu-Gly) [SEQ ID NO: 41] | − | − |  | 
Glp-Gly-Gly ([pGlu]-Gly-Gly) [SEQ ID NO: 48] | − | − |  | 
Glp-His-Gly ([pGlu]-His-Gly) [SEQ ID NO: 45] | − | − |  | 
Glp-Ile-Gly ([pGlu]-Ile-Gly) [SEQ ID NO: 43] | − | − |  | 
Glp-Leu-Gly ([pGlu]-Leu-Gly) [SEQ ID NO: 52] | − | − |  | 
Glp-Lys-Gly ([pGlu]-Lys-Gly) [SEQ ID NO: 39] | − | − |  | 
Glp-Met-Gly ([pGlu]-Met-Gly) [SEQ ID NO: 51] | − | − |  | 
Glp-Phe-Gly ([pGlu]-Phe-Gly) [SEQ ID NO: 40] | − | − |  | 

Substance | Prevented TEER Reduction [1] | Reduced LY Permeability [2] | Decrease of TEER in CaCo2 monolayers [1, 3] | Enhancement of Lucifer Yellow permeability through CaCo2 monolayers [2, 3]
Glp-Pro-Arg ([pGlu]-Pro-Arg) [SEQ ID NO: 62] | − | − |  | 
Glp-Pro-Asn ([pGlu]-Pro-Asn) [SEQ ID NO: 54] | + | − |  | 
Glp-Pro-Asp ([pGlu]-Pro-Asp) [SEQ ID NO: 59] | − | − |  | 
Glp-Pro-Gln ([pGlu]-Pro-Gln) [SEQ ID NO: 53] | − | − |  | 
Glp-Pro-Glu ([pGlu]-Pro-Glu) [SEQ ID NO: 65] | − | − |  | 
Glp-Pro-Gly ([pGlu]-Pro-Gly) [SEQ ID NO: 35] | + | + |  | 
Glp-Pro-His ([pGlu]-Pro-His) [SEQ ID NO: 60] | − | − |  | 
Glp-Pro-Leu ([pGlu]-Pro-Leu) [SEQ ID NO: 61] | − | − |  | 
Glp-Pro-Lys ([pGlu]-Pro-Lys) [SEQ ID NO: 64] | − | − |  | 
Glp-Pro-Met ([pGlu]-Pro-Met) [SEQ ID NO: 68] | + | − |  | 
Glp-Pro-Phe ([pGlu]-Pro-Phe) [SEQ ID NO: 66] | − | − |  | 
Glp-Pro-Pro ([pGlu]-Pro-Pro) [SEQ ID NO: 57] | + | − |  | 
Glp-Pro-Ser ([pGlu]-Pro-Ser) [SEQ ID NO: 56] | − | − |  | 
Glp-Pro-Trp ([pGlu]-Pro-Trp) [SEQ ID NO: 58] | − | − |  | 
Glp-Pro-Tyr ([pGlu]-Pro-Tyr) [SEQ ID NO: 69] | + | − |  | 
Glp-Pro-Val ([pGlu]-Pro-Val) [SEQ ID NO: 63] | − | − |  | 
Glp-Ser-Gly ([pGlu]-Ser-Gly) [SEQ ID NO: 38] | − | − |  | 
Glp-Thr-Gly ([pGlu]-Thr-Gly) [SEQ ID NO: 42] | − | − |  | 
Glp-Trp-Gly ([pGlu]-Trp-Gly) [SEQ ID NO: 49] | − | − |  | 
Glp-Tyr-Gly ([pGlu]-Tyr-Gly) [SEQ ID NO: 44] | − | − |  | 
Glp-Val-Gly ([pGlu]-Val-Gly) [SEQ ID NO: 36] | − | − |  | 
Glu-Pro-Gly (EPG; Tight junction antagonist) [SEQ ID NO: 23] | + | + |  | 
Gly-(d)Pro-(d)Gln (Gly-[dP]-[dQ]) [SEQ ID NO: 16] | − | − |  | 
Gly-(d)Pro-Gln (Gly-[dP]-Gln) [SEQ ID NO: 14] | − | − |  | 
Gly-Pro-(d)Gln (Gly-Pro-[dQ]) [SEQ ID NO: 15] | − | − |  | 
Gly-Pro-Gln (GPQ; Tight junction antagonist) [SEQ ID NO: 13] | + | + |  | 
